Reference: patent US12582625B2, “Methods for treating neuroblastoma” (priority 2015, dated 2026)
Values joined by “and” are separate entries in the source; they are usually repeats but may differ in a detail not shown here. Equal entries are not always repeated.

Columns and labels:
[1] = adults; cited from earlier work
[2] = system: tumors harboring Ki-ras mutations; details: AOM-treated rats, reduced from 90% (Singh et al., 1994); cited from earlier work
urinary polyamines = assay: NMTRC 002: urinary polyamine levels during DFMO therapy; assay type: in vivo, human
Method: Urinary Polyamine Levels. Patients were consented for urine analysis in NMTRC 002. […] Polyamines with at least one free primary amine were quantified using reverse-phase high-performance liquid chromatography (HPLC) as previously described (Thompson et al., 2010). Urinary N^1,N^12-diacetylspermine (N^1,N^12-Ac2Spm or DAS) was determined using the auto DAS reagent kit (Alfresa Pharma Co., Osaka, Japan), according to the manufacturer's instructions. The assay involves the specific binding between a bovine serum albumin-acetylspermine conjugate, as a DAS mimic, and colloidal gold antibody complexes, and has been previously described (Kawakita et al., 2011).

[3] = system: high-risk neuroblastoma in complete remission; assay: NMTRC003 phase II prevention trial: event free and overall survival; assay type: in vivo, human
From the text: Study Design. This was an open label, single agent, multicenter clinical trial for patients with high-risk neuroblastoma in complete remission at the completion of standard therapy. […] Prior to study entry, written informed consent was obtained from the subjects' parent(s) or guardian(s) and, when appropriate, written assent was obtained from subjects. ClinicalTrials.gov Identifiers: NCT01586260/NCT02395666.
Subjects were required to have histologically confirmed International Neuroblastoma Staging System (INSS) high-risk neuroblastoma at the time of diagnosis. Subjects must have completed standard high-risk neuroblastoma (HRNB) therapy with 5-7 cycles of induction chemotherapy, surgical resection of primary tumor (if feasible), consolidative therapy with high-dose chemotherapy/autologous stem cell support and radiation therapy as indicated, and anti-GD2 antibody therapy with isotretinoin for up to 6 cycles. […] To be considered in complete remission, subjects had to have no radiographic evidence for persistent neuroblastoma by CT or MRI (and by metaiodobenzylguanidine (MIBG) in subjects whose tumors were originally MIBG avid), histologically negative bone marrow aspirate/biopsy, and normal urinary catecholamines as assessed by ratios of vanillylmandelic acid and homovanillic acid to creatinine. Subjects with residual masses or bone changes visible on CT or MRI could still be considered in CR if the lesions were negative by both MIBG and PET scans.
Dosing diaries were required to be completed for each cycle. […] The primary endpoint was Event Free Survival (EFS); secondary objectives included Overall Survival (OS) and safety. EFS was defined as the period from the first day of administration of study drug to the first occurrence of relapse or death, and OS was defined as the first day of administration of study drug until death; subjects without an event were censored at the time of last contact. Safety analysis was conducted on all subjects who received at least one dose of study drug, and included the frequency, grading, expectedness and attribution of all adverse events as well as dose interruptions, dose reductions, and treatment discontinuation.
Statistical Analysis: Estimation and hypothesis testing based on survival data. Event-free and overall survival were estimated using the method of Kaplan and Meier (Meier, 1958) while standard errors were estimated using Greenwood's formula. […] However, NMTRC003 patients enrolled on ANBL0032 represent a subset of the ANBL0032 population, patients event-free at the start of NMTRC003 therapy (6-10 months after the start of ANBL0032 therapy) (Yu et al., 2010). Therefore, it was necessary to adjust the published ANBL0032 EFS using the definition of conditional probability for a direct comparison. […]

NB cells = details: DFMO in the 50-150 μM range; cited from earlier work

## NCCCC(N)(C(=O)O)C(F)F (stereo not drawn) [DFMO, 2,5-diamino-2-(difluoromethyl) pentanoic acid]
[1]
  elimination half-life of DFMO: 2 to 4 h
[2]
  tumors harboring Ki-ras mutations: 36%
Urinary polyamines; DFMO dose 500 mg/m^2 BID
  DAS increase from Cycle 1 Day 1, individual patients: Yes and No
  UPA Cycle 1 Day 8 (sum of putrescine, N1AcSpd, N8AcSpd and DAS), individual patients: 4.20 and 15.70 and 11.69
Urinary polyamines; DFMO dose 750 mg/m^2 BID
  DAS increase from Cycle 1 Day 1, individual patients: No (2×) and Yes (3×)
  UPA Cycle 1 Day 8 (sum of putrescine, N1AcSpd, N8AcSpd and DAS), individual patients: 7.80 and 22.08 and 1.94 and 13.46
Urinary polyamines; DFMO dose 1000 mg/m^2 BID
  DAS increase from Cycle 1 Day 1, individual patients: No and Yes (2×)
  UPA Cycle 1 Day 8 (sum of putrescine, N1AcSpd, N8AcSpd and DAS), individual patients: 8.71 and 3.89 and 3.28
Urinary polyamines; DFMO dose 1500 mg/m^2 BID
  DAS increase from Cycle 1 Day 1, individual patients: Yes (4×) and No (3×)
  UPA Cycle 1 Day 8 (sum of putrescine, N1AcSpd, N8AcSpd and DAS), individual patients: 5.61 and 3.98 and 6.99 and 3.77 and 8.81 and 7.38 and 5.93
Urinary polyamines; ODC SNP rs2302615 genotype Any A
  UPA (C1D1 − C8D1)/C1D1 × 100: 0.66 ± 92.00
Urinary polyamines; ODC SNP rs2302615 genotype GG
  UPA (C1D1 − C8D1)/C1D1 × 100: 23.26 ± 35.59
Urinary polyamines; ODC SNP rs2302616 genotype Any T
  UPA (C1D1 − C8D1)/C1D1 × 100: 48.32 ± 18.24
Urinary polyamines; ODC SNP rs2302616 genotype GG
  UPA (C1D1 − C8D1)/C1D1 × 100: −24.46 ± 83.67
Urinary polyamines; after one week of DFMO therapy, GG genotype at rs2302616
  increase of urinary polyamine levels from baseline: ~25%
Urinary polyamines; after one week of DFMO therapy, minor T allele at rs2302616
  decrease of urinary polyamine levels from baseline: ~50%
Urinary polyamines; cycle 1, N=16 patients with complete data, P=1.000
  change in urinary N^1AcSpd between Day 8 and 15: No change
Urinary polyamines; disease progression within 100 days of therapy start
  patients with increased urinary DAS: 9/10
Urinary polyamines; first two weeks of treatment, population as a whole
  urinary N^1AcSpd contents: reduced
Urinary polyamines; patients with disease progression after 100 days from start of therapy
  average decrease of urinary polyamines from baseline: 1.57±3.37 μmol/g Creatinine
Urinary polyamines; patients with disease progression less than 100 days after start of therapy
  average increase of total urinary polyamines (putrescine+N^1AcSpd+N^8AcSpd+DAS) from baseline: 6.56±16.29 μmol/g Creatinine
Urinary polyamines; progression free up to 100 days
  patients with increased urinary DAS: 1/7
[3]; ITT population (91)
  subjects who have relapsed to date: 6
[3]; follow up of up to 3.5 years
  relapses after completion of DFMO therapy (all 27 cycles): no late relapses and None
[3]; n=4 of 52 with known Curie score, ANBL0032 followed by DFMO
  outcome of subjects with Curie score greater than 0 prior to immunotherapy: remain in remission
[3]; subjects previously enrolled on ANBL0032 (n=74)
  2-year event free survival (EFS): 95% (±3%) and 95% (+/−3%)
NB cells
  killing of NB cells: do not kill NB cells
